Assay results taken from ChEMBL document CHEMBL4390668, “Discovery and Structural Optimization of Acridones as Broad-Spectrum Antimalarials” (J Med Chem, 2019).
Activity calls are given as the source filed them. No cut-off for these calls is given here.

Assays:
Plasmodium falciparum [1] = experiment: Antimalarial activity against Plasmodium falciparum 3D7 infected in human erythrocytes after 72 hrs by SYBR green 1-based fluorescence assay; format: functional, organism-based; details: 3D7, 72 h
Plasmodium falciparum [2] = experiment: Inhibition of Plasmodium falciparum cytochrome b-c1
Plasmodium falciparum [3] = experiment: Antimalarial activity against drug-resistant Plasmodium falciparum Dd2 harboring M133I/A138T double mutant infected in human erythrocytes after 72 hrs by SYBR green 1-based fluorescence assay; format: functional, organism-based; details: Dd2, 72 h
Plasmodium falciparum [4] = experiment: Antimalarial activity against drug-resistant Plasmodium falciparum Dd2 harboring M133I mutant infected in human erythrocytes after 72 hrs by SYBR green 1-based fluorescence assay; format: functional, organism-based; details: Dd2, 72 h
Plasmodium falciparum [5] = experiment: Antimalarial activity against drug-resistant Plasmodium falciparum Dd2 harboring V259L mutant infected in human erythrocytes after 72 hrs by SYBR green 1-based fluorescence assay; format: functional, organism-based; details: Dd2, 72 h
Plasmodium falciparum [6] = experiment: Antimalarial activity against drug-resistant Plasmodium falciparum 3D7 harboring A82T/V259L double mutant infected in human erythrocytes after 72 hrs by SYBR green 1-based fluorescence assay; format: functional, organism-based; details: 3D7, 72 h
[7] = Cmax in ICR mouse liver at 80 mg/kg, po administered as single dose; format: ADME, organism-based; parameters: dose 80 mg/kg, route oral
[8] = Tmax in ICR mouse plasma at 80 mg/kg, po administered as single dose; format: ADME, organism-based; details: ICR, plasma, read-out: Tmax
[9] = Mean residence time in ICR mouse liver at 80 mg/kg, po administered as single dose; format: ADME, organism-based
[10] = Half life in human liver microsomes at 1 uM by LC-MS analysis; format: ADME, Microsome
[11] = Apparent elimination half life in ICR mouse liver at 80 mg/kg, po administered as single dose; format: ADME, organism-based; details: read-out: betat1/2(app) (converted)
[12] = Tmax in ICR mouse liver at 80 mg/kg, po administered as single dose; format: ADME, organism-based
[13] = AUC (0 to last) in ICR mouse plasma at 80 mg/kg, po administered as single dose; format: ADME, organism-based; parameters: dose 80 mg/kg, route oral, time 0 - last
Plasmodium falciparum [14] = experiment: Antimalarial activity against multidrug-resistant Plasmodium falciparum 7G8 infected in human erythrocytes by SYBR green 1-based fluorescence assay; format: functional, organism-based
[15] = Apparent clearance in ICR mouse plasma at 80 mg/kg, po administered as single dose; format: ADME, organism-based; details: read-out: CL(app) (converted)
[16] = AUC (0 to last) in ICR mouse liver at 80 mg/kg, po administered as single dose; format: ADME, organism-based; parameters: dose 80 mg/kg, route oral, time 0 - last
[17] = Mean residence time in ICR mouse plasma at 80 mg/kg, po administered as single dose; format: ADME, organism-based
[18] = Apparent volume of distribution in ICR mouse plasma at 80 mg/kg, po administered as single dose; format: ADME, organism-based; details: in vivo
Plasmodium yoelii = experiment: Antimalarial activity against blood stage Plasmodium yoelii MR4 MRA-428 infected in CF1 mouse assessed as suppression of parasitemia administered once daily via oral gavage for 4 days starting from 24 hrs post-infection and measured post-last dose by Giemsa-staining based microscopic analysis; format: functional
[19] = Half life in mouse liver microsomes at 1 uM by LC-MS analysis; format: ADME, Microsome
HepG2 = experiment: Cytotoxicity against human HepG2 cells measured after 24 to 36 hrs by resazurin dye based fluorescence assay; format: cell-based
Plasmodium falciparum [20] = experiment: Antimalarial activity against atovaquone-resistant Plasmodium falciparum Tm90-C2B infected in human erythrocytes by SYBR green 1-based fluorescence assay; format: functional, organism-based
[21] = Apparent elimination half life in ICR mouse plasma at 80 mg/kg, po administered as single dose; format: ADME, organism-based; details: ICR, plasma, read-out: betat1/2(app) (converted)
[22] = Selectivity index, ratio of IC50 for human HepG2 cells to IC50 for chloroquine-sensitive Plasmodium falciparum D6 infected in human erythrocytes; format: toxicity, cell-based; details: read-out: Ratio IC50
Plasmodium falciparum [23] = experiment: Antimalarial activity against multidrug-resistant Plasmodium falciparum Dd2 infected in human erythrocytes by SYBR green 1-based fluorescence assay; format: functional, organism-based
Plasmodium falciparum [24] = experiment: Antimalarial activity against chloroquine-sensitive Plasmodium falciparum D6 infected in human erythrocytes by SYBR green 1-based fluorescence assay; format: functional, organism-based
[25] = AUC (0 to infinity) in ICR mouse liver at 80 mg/kg, po administered as single dose; format: ADME, organism-based; parameters: dose 80 mg/kg, route oral, time infinity
[26] = Cmax in ICR mouse plasma at 80 mg/kg, po administered as single dose; format: ADME, organism-based; parameters: dose 80 mg/kg, route oral; details: ICR, plasma, read-out: Cmax
Plasmodium berghei [27] = experiment: (§1) Antimalarial activity against liver stage luciferase-expressing Plasmodium berghei ANKA 676m1cl1 sporozoites infected in C57BL/6 mouse assessed as suppression of parasitemia at 40 to 160 mg/kg, po pretreated for 1 day followed by parasite infection and subsequent compound dosing for 2 days measured at 24 to 48 hrs post-infection by luciferin-based real-time imaging analysis; format: functional
Plasmodium berghei [28] = experiment: Antimalarial activity against luciferase-expressing Plasmodium berghei ANKA 676m1cl1 sporozoites infected in human HepG2A16 cells measured after 45 hrs by luciferase-luciferin based reporter assay; format: functional, organism-based; details: ANKA 676m1cl1, HepG2A16, 45 h
[29] = AUC (0 to infinity) in ICR mouse plasma at 80 mg/kg, po administered as single dose; format: ADME, organism-based; parameters: dose 80 mg/kg, route oral, time infinity; details: ICR, plasma
[30] = Mutagenicity in Salmonella typhimurium TA98 assessed as increase in revertant colonies up to 10 uM in absence of S9 fraction by Ames test; format: toxicity; details: salmonella enterica subsp. enterica serovar typhimurium
Plasmodium berghei [31] = experiment: as §1, with “10” for “40 to 160”; format: functional
[32] = Mutagenicity in Salmonella typhimurium TA100 assessed as increase in revertant colonies up to 10 uM in absence of S9 fraction by Ames test; format: toxicity; details: salmonella enterica subsp. enterica serovar typhimurium
[33] = Mutagenicity in Salmonella typhimurium TA100 assessed as increase in revertant colonies up to 10 uM in presence of S9 fraction by Ames test; format: toxicity, subcellular; details: salmonella enterica subsp. enterica serovar typhimurium
hERG (KCNH2) = hERG (KCNH2) (Homo sapiens, UniProt Q12809); experiment: Inhibition of human ERG expressed in CHOK1 cells at 10 uM by automated patch clamp method relative to control; format: cell-based; details: CHO-K1 cells that express hERG
[34] = Mutagenicity in Salmonella typhimurium TA98 assessed as increase in revertant colonies up to 10 uM in presence of S9 fraction by Ames test; format: toxicity, subcellular; details: salmonella enterica subsp. enterica serovar typhimurium
Plasmodium berghei [35] = experiment: as §1, with “blood” for “liver”, “10” for “40 to 160”, “up” for “at 24”, “30 days” for “48 hrs”, “YOYO1 staining based flow cytometry” for “luciferin-based real-time imaging analysis”; format: functional

hERG (KCNH2), sequence (Q12809 whole entry): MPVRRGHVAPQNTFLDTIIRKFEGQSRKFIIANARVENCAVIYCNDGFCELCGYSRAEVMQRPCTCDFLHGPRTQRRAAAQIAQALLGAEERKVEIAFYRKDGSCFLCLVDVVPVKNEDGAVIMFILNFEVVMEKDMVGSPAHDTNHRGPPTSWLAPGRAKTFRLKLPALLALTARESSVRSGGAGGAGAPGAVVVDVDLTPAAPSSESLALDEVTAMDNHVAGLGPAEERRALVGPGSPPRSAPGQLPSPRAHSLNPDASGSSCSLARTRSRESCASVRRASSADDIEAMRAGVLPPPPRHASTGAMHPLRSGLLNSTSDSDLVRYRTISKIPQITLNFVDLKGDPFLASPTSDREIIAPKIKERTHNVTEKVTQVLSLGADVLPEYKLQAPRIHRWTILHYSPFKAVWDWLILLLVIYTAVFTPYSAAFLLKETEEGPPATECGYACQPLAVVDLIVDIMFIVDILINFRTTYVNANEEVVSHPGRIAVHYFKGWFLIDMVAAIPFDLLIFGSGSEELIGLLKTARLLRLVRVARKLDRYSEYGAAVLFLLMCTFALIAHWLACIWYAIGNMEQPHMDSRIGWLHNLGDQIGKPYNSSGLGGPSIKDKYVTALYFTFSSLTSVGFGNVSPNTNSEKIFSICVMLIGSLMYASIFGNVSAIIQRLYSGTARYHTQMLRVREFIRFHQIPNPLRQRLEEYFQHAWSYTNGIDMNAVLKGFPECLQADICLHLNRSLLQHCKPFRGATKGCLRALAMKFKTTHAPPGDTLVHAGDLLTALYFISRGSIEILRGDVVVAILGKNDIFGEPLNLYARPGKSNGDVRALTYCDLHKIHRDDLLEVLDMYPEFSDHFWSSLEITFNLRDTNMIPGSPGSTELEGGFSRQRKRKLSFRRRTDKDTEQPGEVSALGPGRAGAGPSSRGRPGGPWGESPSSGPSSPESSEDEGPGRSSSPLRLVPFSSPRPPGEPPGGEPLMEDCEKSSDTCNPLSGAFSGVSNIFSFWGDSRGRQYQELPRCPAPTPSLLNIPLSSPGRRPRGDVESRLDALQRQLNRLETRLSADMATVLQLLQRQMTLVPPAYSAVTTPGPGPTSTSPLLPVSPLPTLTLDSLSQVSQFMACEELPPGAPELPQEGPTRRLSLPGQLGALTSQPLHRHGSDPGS

Q: With Clc1ccc2c(N3CCN(CCCN4CCN(c5ccnc6cc(Cl)ccc56)CC4)CC3)ccnc2c1 [PIPERAQUINE] as the compound, how does the IC50 (Plasmodium falciparum [1]) read?
A: Its IC50 is 7.2 nM.

Q: And the inhibition (Plasmodium falciparum [2])?
A: Its inhibition is “inactive”.

Q: What about the IC50 (Plasmodium falciparum [3]) of the same compound?
A: Its IC50 is 7.4 nM.

Q: What about the IC50 (Plasmodium falciparum [4]) of the same compound?
A: The IC50 was 10 nM.

Q: What about the IC50 (Plasmodium falciparum [5]) of the same compound?
A: Its IC50 is 7.1 nM.

Q: What about the IC50 (Plasmodium falciparum [6]) of the same compound?
A: Its IC50 is 5 nM.

Q: Which IC50 (Plasmodium falciparum [1]) does the source give for CCN(CC)CCOc1ccc2c(=O)c3ccc(Cl)cc3[nH]c2c1 here?
A: The IC50 was 84 nM.

Q: And the Cmax [7]?
A: The Cmax was 193000 ng/mL.

Q: And the Tmax [8]?
A: The Tmax was 2 h.

Q: What about the MRT [9] of the same compound?
A: Its MRT is 5.59 h.

Q: And the inhibition (Plasmodium falciparum [2])?
A: Its inhibition is “inactive”.

Q: What about the half-life at 1 µM [10] of the same compound?
A: Its half-life at 1 µM is over 1 h.

Q: What about the half-life [11] of the same compound?
A: The half-life was 6.7 h.

Q: What about the Tmax [12] of the same compound?
A: Its Tmax is 1 h.

Q: And the AUC(0-t) [13]?
A: The AUC(0-t) was 5.31 µg·h/mL.

Q: And the IC50 (Plasmodium falciparum [14])?
A: The IC50 was 38 nM.

Q: What about the CL/F [15] of the same compound?
A: The CL/F was 230 mL/min/kg.

Q: What about the AUC(0-t) [16] of the same compound?
A: The AUC(0-t) was 1460 µg·h/mL.

Q: What about the MRT [17] of the same compound?
A: The MRT was 3.41 h.

Q: What about the Vz [18] of the same compound?
A: The Vz was 37.689 L/kg.

Q: And the ED50 (Plasmodium yoelii)?
A: The ED50 was 48 mg/kg.day.

Q: What about the ED90 (Plasmodium yoelii) of the same compound?
A: Its ED90 is 72 mg/kg.day.

Q: What about the half-life at 1 µM [19] of the same compound?
A: The half-life at 1 µM was over 1 h.

Q: And the IC50 (HepG2)?
A: Its IC50 is 36400 nM.

Q: What about the IC50 (Plasmodium falciparum [3]) of the same compound?
A: Its IC50 is 1070 nM.

Q: What about the IC50 (Plasmodium falciparum [20]) of the same compound?
A: The IC50 was 589 nM.

Q: And the half-life [21]?
A: The half-life was 1.9 h.

Q: And the selectivity ratio [22]?
A: The selectivity ratio was 1140.

Q: And the IC50 (Plasmodium falciparum [23])?
A: Its IC50 is 41 to 117 nM.

Q: And the IC50 (Plasmodium falciparum [5])?
A: Its IC50 is 2120 nM.

Q: What about the IC50 (Plasmodium falciparum [24]) of the same compound?
A: The IC50 was 32 nM.

Q: What about the AUC(0-inf) [25] of the same compound?
A: The AUC(0-inf) was 1460 µg·h/mL.

Q: And the IC50 (Plasmodium falciparum [6])?
A: The IC50 was 1640 nM.

Q: And the Cmax [26]?
A: Its Cmax is 1360 ng/mL.

Q: What about the Activity (Plasmodium berghei [27]) of the same compound?
A: Its Activity is 100%.

Q: What about the IC50 (Plasmodium berghei [28]) of the same compound?
A: The IC50 was 113 nM.

Q: What about the AUC(0-inf) [29] of the same compound?
A: Its AUC(0-inf) is 5.81 µg·h/mL.

Q: Which results are given for CCCN(CCC)CCCOc1ccc2c(=O)c3c(F)cc(F)cc3[nH]c2c1?
A: Activity [30]: Non-Toxic; Cmax [7]: 19700 ng/mL; Tmax [8]: 7.78 h; MRT [9]: 13.3 h; half-life at 1 µM [10]: > 1 h; half-life [11]: 6.59 h; Tmax [12]: 4 h; AUC(0-t) [13]: 3.43 µg·h/mL; IC50 (Plasmodium falciparum [14]): 2.1 nM; CL/F [15]: 265 mL/min/kg; Activity (Plasmodium berghei [31]): 100%; Activity [32]: Non-Toxic; AUC(0-t) [16]: 236 µg·h/mL; MRT [17]: 11.8 h; Vz [18]: 175.302 L/kg; ED50 (Plasmodium yoelii): 0.6 mg/kg.day; ED90 (Plasmodium yoelii): 2.48 mg/kg.day; half-life at 1 µM [19]: > 1 h; IC50 (HepG2): 61500 nM; Activity [33]: Non-Toxic; IC50 (Plasmodium falciparum [20]): 440 nM; half-life [21]: 7.78 h; selectivity ratio [22]: 176000; IC50 (Plasmodium falciparum [23]): 0.49 nM; IC50 (Plasmodium falciparum [24]): 0.35 nM; AUC(0-inf) [25]: 237 µg·h/mL; Cmax [26]: 526 ng/mL; inhibition at 10 µM (hERG (KCNH2)): 102%; IC50 (Plasmodium berghei [28]): 3.4 nM; Activity [34]: Non-Toxic; AUC(0-inf) [29]: 5.08 µg·h/mL; Activity (Plasmodium berghei [35]): 100%
